From patent US20230285405A1, “Pharmaceuticals for Treating or Preventing Nidoviruses and Picornaviruses” (priority 2020, published 2023)
Like-named read-outs stand apart in the source and are kept apart here.

Legend:
[1] = system: A549-mRuby cells; assay: Drug screening: effect on cell growth (cell number day 4 / day 0); conditions: 10 μM drug; for Growth_1: number of cells at day 4 divided by number of cells at day 0 / toxic_1: repeat #1; for Growth_2: number of cells at day 4 divided by number of cells at day 0 / toxic_2: repeat #2
Summary of the method: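 Growth was scored as day 4/day 0 cell count from images of OC43-infected (MOI 0.3) A549-mRuby nuclear-reporter cells. Compounds were added at 10 μM final after a 1 h infection at 33° C, followed by 4 days of culture at 33° C in two independent screens.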

[2] = system: OC43; assay: Drug screening: OC43 nucleoprotein staining in infected A549-mRuby cells; type: cell-based, human beta coronavirus OC43; conditions: for activity at 10 µM: Betacoronavirus 1, OC43, 96 h
Summary of the method: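 Repurposing screen: drugs at 10 μM final added 1 h after OC43 infection (MOI 0.3) of H2B-mRuby A549 cells, 4-day incubation at 33° C. Cell counts imaged at day 0 and day 4; nucleoprotein staining per cell normalized to untreated infected wells, hit threshold >3 SD in duplicate screens, non-toxic.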

[3] = system: SARS-CoV-2; assay: SARS-CoV-2 plaque titers (progeny production); type: cell-based, SARS-CoV-2 (nCoV/Washington/1/2020); conditions: 10 μM drug for 2 hours, MOI 0.5, supernatant collected 2 days after
Method: For SARS-CoV-2 plaque titers, cell supernatants from the infection described above were serially diluted (10-fold steps were used) and used to infect Vero E6 cells for 1 hour. Inoculum was removed and 1.25% methylcellulose DMEM solution was added to the cells and incubated for 3 days. Plates were fixed in 1:10 formalin for 1 hour, stained with crystal violet for 1 hour and were counted to determine plaque forming units (PFU)/ml.
The effect of several drugs on the production of viable progeny viruses was evaluated. Cells were treated with 10 μM of the drugs for 2 hours, infected at an MOI of 0.5 and the supernatant collected 2 days after for titration (FIG. 2C). Cepharanthine and azelastine completely eliminated SARS-CoV-2 progeny production (>5-logs decrease), while flupenthixol and desloratidine reduced viral titers by about 2-logs. Ultimately, the screen identified 20 safe-in-human drugs that are able to inhibit both OC43 and SARS-CoV-2 infection in vitro.

SMILES	Growth_1: number of cells at day 4 divided by number of cells at day 0 [1]	toxic_1 [1]	Growth_2: number of cells at day 4 divided by number of cells at day 0 [1]	toxic_2 [1]	OC43_1: % staining of OC43 in screen repeat #1 [2]	OC43_2: % staining of OC43 in screen repeat #2 [2]	hit_1 [2]	hit_2 [2]	OC43_mean ([2]; 10 μM drug, MOI 0.3, 4 days, OC43 staining normalized to no-drug controls, mean of the two screen repeats)	decrease of SARS-CoV-2 viral titers (progeny production) [3]	hit_1 ([2]; 10 μM drug, repeat #1)	hit_2 ([2]; 10 μM drug, repeat #2)	activity at 10 µM ([2]; 10 μM drug, MOI 0.3, 4 days, OC43 staining normalized to no-drug controls, mean of the two screen repeats, read-out: OC43_mean)	activity at 10 µM ([2]; 10 μM drug, MOI 0.3, 4 days, normalized to no-drug controls in the same plate, repeat #1, read-out: OC43_1: % staining of OC43 in screen repeat #1)	activity at 10 µM ([2]; 10 μM drug, MOI 0.3, 4 days, normalized to no-drug controls in the same plate, repeat #2, read-out: OC43_2: % staining of OC43 in screen repeat #2)
Cl.Cl.OCCN1CCN(CCC=C2c3ccccc3Sc3ccc(C(F)(F)F)cc32)CC1 (mixture of isomers) [Flupenthixol dihydrochloride]	2.1	0	3.3	0	8.7%	33.3%	1	1	21.0%	about 2 logs	–	–	–	–	–
Clc1ccc2c(c1)CCc1cccnc1C2=C1CCNCC1 [Desloratadine]	4.8	0	4.4	0	–	–	–	–	–	about 2 logs	1	1	19.3%	13.2%	25.4%
